ChEMBL document CHEMBL4765403, “Augmentation of the antitumor effects of PARP inhibitors in triple-negative breast cancer via degradation by hydrophobic tagging modulation” (Eur J Med Chem, 2020)
Active and inactive are the calls of the source. The rule behind the calls is not given here.

Tests used:
[1] = molecular target: Poly [ADP-ribose] polymerase 1 (Homo sapiens) (UniProt P09874); test: Induction of PARP1 degradation in human MDA-MB-231 cells at 5 uM incubated for 48 hrs in presence of proteasome inhibitor, bortezomib by immunoblotting analysis; type: cell-based
Sequence of Poly [ADP-ribose] polymerase 1 (Homo sapiens) (P09874 whole entry): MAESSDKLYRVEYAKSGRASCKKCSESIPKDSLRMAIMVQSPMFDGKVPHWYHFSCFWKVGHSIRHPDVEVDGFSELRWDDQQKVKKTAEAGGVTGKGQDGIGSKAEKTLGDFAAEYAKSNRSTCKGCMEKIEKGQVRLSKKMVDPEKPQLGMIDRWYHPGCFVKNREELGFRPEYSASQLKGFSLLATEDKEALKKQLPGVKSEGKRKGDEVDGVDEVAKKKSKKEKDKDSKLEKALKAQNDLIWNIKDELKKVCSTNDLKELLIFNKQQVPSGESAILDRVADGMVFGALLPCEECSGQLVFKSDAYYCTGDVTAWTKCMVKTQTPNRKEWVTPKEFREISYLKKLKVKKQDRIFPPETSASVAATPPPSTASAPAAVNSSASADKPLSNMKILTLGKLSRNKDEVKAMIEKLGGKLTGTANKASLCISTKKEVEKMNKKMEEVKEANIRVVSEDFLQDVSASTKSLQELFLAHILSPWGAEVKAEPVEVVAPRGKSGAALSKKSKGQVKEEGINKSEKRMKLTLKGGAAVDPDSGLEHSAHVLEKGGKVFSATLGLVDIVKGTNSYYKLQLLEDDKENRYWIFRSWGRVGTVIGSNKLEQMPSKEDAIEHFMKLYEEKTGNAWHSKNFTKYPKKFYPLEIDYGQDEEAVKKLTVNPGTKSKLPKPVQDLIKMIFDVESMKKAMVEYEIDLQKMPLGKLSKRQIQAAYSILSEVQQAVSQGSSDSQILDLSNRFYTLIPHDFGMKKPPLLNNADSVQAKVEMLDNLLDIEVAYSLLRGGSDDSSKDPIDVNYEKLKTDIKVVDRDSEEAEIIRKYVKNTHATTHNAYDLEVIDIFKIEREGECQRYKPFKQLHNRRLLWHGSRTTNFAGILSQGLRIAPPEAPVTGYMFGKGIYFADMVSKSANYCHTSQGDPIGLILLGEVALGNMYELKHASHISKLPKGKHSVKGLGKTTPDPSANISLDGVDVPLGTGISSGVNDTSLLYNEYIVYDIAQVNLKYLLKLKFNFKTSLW

MDA-MB-231 [2] = test: Induction of apoptosis in human MDA-MB-231 cells assessed as increase in Bax protein expression at 5 uM incubated for 24 to 48 hrs by Western blot analysis; type: functional, cell-based; conditions: time 24-48 hrs
[3] = molecular target: Poly [ADP-ribose] polymerase 1 (Homo sapiens) (UniProt P09874); test: Induction of PARP1 degradation in triple-negative human MDA-MB-231 cells assessed as fold change in PARP1 protein expression at 0.5 uM incubated for 24 hrs by Western blot analysis relative to control; type: cell-based
MDA-MB-231 [4] = test: Induction of apoptosis in human MDA-MB-231 cells assessed as increase in p21 protein expression at 5 uM incubated for 24 to 48 hrs by Western blot analysis; type: functional, cell-based; conditions: time 24-48 hrs
[5] = molecular target: Poly [ADP-ribose] polymerase 1 (Homo sapiens) (UniProt P09874); test: Induction of PARP1 degradation in human MDA-MB-231 cells assessed as fold change in PARP1 protein expression at 5 uM incubated for 48 hrs in presence of pan-caspase inhibitor, Z-VAD-FMK by Western blot analysis; type: cell-based
[6] = molecular target: Poly [ADP-ribose] polymerase 1 (Homo sapiens) (UniProt P09874); test: Induction of PARP1 degradation in triple-negative human MDA-MB-231 cells assessed as fold change in PARP1 protein expression at 2.5 uM incubated for 24 hrs by Western blot analysis relative to control; type: cell-based
MDA-MB-468 [7] = test: Induction of apoptosis in human MDA-MB-468 cells assessed as increase in p21 protein expression at 5 uM incubated for 48 hrs by Western blot analysis; type: functional, cell-based
[8] = molecular target: Poly [ADP-ribose] polymerase 1 (Homo sapiens) (UniProt P09874); test: Induction of PARP1 degradation in triple negative human MDA-MB-231 cells assessed as fold change in PARP1 protein expression at 5 uM incubated for 48 hrs by Western blot analysis relative to control; type: cell-based
MDA-MB-231 [9] = test: Induction of apoptosis in human MDA-MB-231 cells assessed as decrease in Bcl2 protein expression at 5 uM incubated for 24 to 48 hrs by Western blot analysis; type: functional, cell-based; conditions: time 24-48 hrs
[10] = molecular target: Poly [ADP-ribose] polymerase 1 (Homo sapiens) (UniProt P09874); test: Induction of PARP1 degradation in triple-negative human MDA-MB-231 cells assessed as fold change in PARP1 protein expression at 0.01 uM incubated for 24 hrs by Western blot analysis relative to control; type: cell-based
MDA-MB-231 [11] = test: Induction of apoptosis in human MDA-MB-231 cells assessed as apoptotic body formation at 5 uM incubated for 24 to 48 hrs by transmission electron microscopy; type: functional, cell-based; conditions: time 24-48 hrs
MDA-MB-231 [12] = test: Cytotoxicity against human MDA-MB-231 cells assessed as reduction in cell growth at 5 uM measured after 96 hrs by CCK8 assay relative to control; type: functional
MDA-MB-231 [13] = test: Induction of apoptosis in human MDA-MB-231 cells assessed as upregulation in p21 gene expression at 5 to 10 uM incubated for 24 to 48 hrs by RT-PCR analysis; type: functional, cell-based; conditions: dose 5-10 µM, time 24-48 hrs
[14] = molecular target: Poly [ADP-ribose] polymerase 1 (Homo sapiens) (UniProt P09874); test: Induction of PARP1 degradation in human MDA-MB-231 cells assessed as fold change in PARP1 protein expression at 5 uM pretreated with caspase I inhibitor, Ac-YVAD-cmk for 2 hrs followed by incubation with compound for 48 hrs by Western blot analysis relative to control; type: cell-based
MDA-MB-231 [15] = test: Induction of apoptosis in human MDA-MB-231 cells assessed as upregulation in Bax gene expression at 5 to 10 uM incubated for 24 to 48 hrs by RT-PCR analysis; type: functional, cell-based; conditions: dose 5-10 µM, time 24-48 hrs
MDA-MB-231 [16] = test: Induction of autophagy in human MDA-MB-231 cells assessed as autophagosome, large double membrane-bound vesicles enclosing cytoplasmic components formation at 5 uM incubated for 24 to 48 hrs by transmission electron microscopy; type: functional, cell-based; conditions: time 24-48 hrs
[17] = molecular target: Poly [ADP-ribose] polymerase 1 (Homo sapiens) (UniProt P09874); test: Induction of PARP1 degradation in triple-negative human MDA-MB-231 cells assessed as fold change in PARP1 protein expression at 10 uM incubated for 48 hrs by Western blot analysis relative to control; type: cell-based
MDA-MB-231 [18] = test: Induction of apoptosis in human MDA-MB-231 cells assessed as downregulation in survivin gene expression at 5 to 10 uM incubated for 24 to 48 hrs by RT-PCR analysis; type: functional, cell-based; conditions: dose 5-10 µM, time 24-48 hrs
[19] = molecular target: Poly [ADP-ribose] polymerase 1 (Homo sapiens) (UniProt P09874); test: Induction of PARP1 degradation in triple-negative human MDA-MB-231 cells assessed as fold change in PARP1 protein expression at 0.5 uM incubated for 48 hrs by Western blot analysis relative to control; type: cell-based
[20] = molecular target: Poly [ADP-ribose] polymerase 1 (Homo sapiens) (UniProt P09874); test: Induction of PARP1 degradation in human MDA-MB-231 cells at 5 uM incubated for 48 hrs in presence of proteasome inhibitor, carfilzomib by immunoblotting analysis; type: cell-based
MDA-MB-468 [21] = test: Induction of endoplasmic reticulum stress in human MDA-MB-468 cells assessed as increase in XBP-1s protein expression at 5 uM incubated for 48 hrs by Western blot analysis; type: functional, cell-based
[22] = molecular target: Poly [ADP-ribose] polymerase 1 (Homo sapiens) (UniProt P09874); test: Induction of PARP1 degradation in human MDA-MB-231 cells at 2.5 uM incubated for 48 hrs by Western blot analysis relative to control; type: cell-based
MDA-MB-231 [23] = test: Cytotoxicity against human MDA-MB-231 cells assessed as reduction in cell viability measured after 96 hrs by CCK8 assay; type: functional, cell-based; conditions: MDA-MB-231, 96 h
[24] = molecular target: Poly [ADP-ribose] polymerase 1 (Homo sapiens) (UniProt P09874); test: Induction of PARP1 degradation in human MDA-MB-231 cells at 5 uM incubated for 48 hrs in presence 5 to 10 uM PARP1 inhibitor olaparib by Western blot analysis; type: cell-based
MDA-MB-468 [25] = test: Induction of apoptosis in human MDA-MB-468 cells assessed as decrease in Bcl2 protein expression at 5 uM incubated for 48 hrs by Western blot analysis; type: functional, cell-based
[26] = molecular target: Poly [ADP-ribose] polymerase 1 (Homo sapiens) (UniProt P09874); test: Induction of PARP1 degradation in human MDA-MB-468 cells at 5 uM incubated for 48 hrs in presence 5 uM PARP1 inhibitor olaparib by Western blot analysis; type: cell-based
[27] = molecular target: Poly [ADP-ribose] polymerase 1 (Homo sapiens) (UniProt P09874); test: Induction of PARP1 degradation in human MDA-MB-231 cells assessed as fold change in PARP1 protein expression at 5 uM pretreated for 2 hrs with pan-caspase inhibitor, Z-VAD-FMK followed by incubation with compound for 48 hrs by Western blot analysis relative to control; type: cell-based
[28] = molecular target: Poly [ADP-ribose] polymerase 1 (Homo sapiens) (UniProt P09874); test: Induction of PARP1 degradation in human MDA-MB-468 cells assessed as fold change in PARP1 protein expression at 5 uM pretreated with caspase I inhibitor, Ac-YVAD-cmk for 2 hrs followed by incubation with compound for 48 hrs by Western blot analysis relative to control; type: cell-based

Structure (SMILES): O=C(CC1c2ccccc2-c2ccccc21)N1CCN(C(=O)c2cc(Cc3n[nH]c(=O)c4ccccc34)ccc2F)CC1
- Activity [1]: inactive
- Activity (MDA-MB-231 [2]): Active
- fold change (FC) [3]: 0.8
- Activity (MDA-MB-231 [4]): Active
- fold change (FC) [5]: 0.3
- fold change (FC) [6]: 0.8
- Activity (MDA-MB-468 [7]): Active
- fold change (FC) [8]: 0.1
- Activity (MDA-MB-231 [9]): Active
- fold change (FC) [10]: 0.9
- Activity (MDA-MB-231 [11]): Active
- inhibition at 5 µM (MDA-MB-231 [12]): 80%
- Activity (MDA-MB-231 [13]): Active
- fold change (FC) [14]: 0.3
- Activity (MDA-MB-231 [15]): Active
- Activity (MDA-MB-231 [16]): Active
- fold change (FC) [17]: 0.1
- Activity (MDA-MB-231 [18]): Active
- fold change (FC) [19]: 0.6
- Activity [20]: inactive
- Activity (MDA-MB-468 [21]): Active
- Activity [22]: 60%
- IC50 (MDA-MB-231 [23]): 2.1 µM
- Activity [24]: inactive
- Activity (MDA-MB-468 [25]): Active
- Activity [26]: inactive
- fold change (FC) [27]: 0.3
- fold change (FC) [28]: 0.2
